# System: Rat aortic ring
# Assay: Rat Aortic Ring Assay
# Assay type: cell-based
# Conditions: Rattus norvegicus; 10 ug/ml, compared with blank control, sixth day
# Excerpt: Rat Aortic Ring Assay • 1) 6 week old SD […] (Sprague Dawley) were selected for the experiments. Cleaned abdominal skin with 75% ethanol to disinfect, and then anesthetized the mice with ether, • 2) Carefully removed the abdominal aortas and transferred the aortas to normal saline. Excessive vascular tissues were carefully removed with scissors. • 3) The aortas were rinsed with normal saline until no blood stain remained. • 4) Sectioned the aortas into one millimeter depth arterial slices with ophthalmological scissors. • 5) Add 50 μL pre-thawed Matrigel to each well of the pre-cooled 96 well cell culture plates, and embedded the ring-shaped mouse aortas in collagen gel. • 6) Incubated for 60 minutes at 37° C. to solidificate the gel. • 7) Added DMEM culture solution containing 10% FBS, along with different concentrations of the selected compounds into the wells and cultured in the incubator. Every compound was repeated in no less than 3 wells. • 8) Replaced with the fresh medium and changed the medicine once on the third day. • 9) Took out the pates on the sixth day, and observed the vascular growth with Microscope (OLYMPUS, DP70, Japan) and took photographs(×100). Randomly chose 3 arterial rings to photograph and calculated the area covered by micro-vascular with Image Pro Plus software. The inhibition rate is calculated as:
# [formula] • Evaluation criteria: ⋆inhibition rate[…]; ⋆⋆inhibition rate 60-90%; ⋆⋆⋆inhibition rate>90%.
row,SMILES,inhibition at 10 µg/mL
1,"CCOc1cc2nnnc(Nc3ccccc3)c2cc1OC [Example 28, 6-methoxy-7-ethoxy-4-anilino-benzo[d][1,2,3]triazine]",~40%
2,"CCOc1cc2nnnc(Nc3ccc(C(F)(F)F)cc3)c2cc1OC [Example 35, 6-methoxy-7-ethoxy-4-(4-trifluoromethylanilino)-benzo[d][1,2,3]triazine]",~40%
3,"COc1cc2c(Nc3cc(F)cc(F)c3)nnnc2cc1OCCCCl [Example 64, 6-methoxy-7-chloropropoxy-4-(3,5-difluoroanilino)-benzo[d][1,2,3]triazine]",> 50%

# Same assay, conditions: compared with blank control, sixth day
row,SMILES,"Rat Aortic Ring Assay (10 ug/ml), inhibition"
1,"COc1cc2c(Nc3ccc(F)c(Cl)c3)nnnc2cc1OCCCN1CCN(C)CC1.Cl [Example 96, 6-methoxy-7-(3-N-methylpiperazin-1-yl-propoxy)-4-(3-chloro-4-fluoroanilino)-benzo[d][1,2,3]triazin-4-amine hydrochloride]","Vessel formation became less, about 30% inhibition"

# Same assay, conditions: observed on the sixth day
row,SMILES,"Rat Aortic Ring Assay (10 ug/ml), result in words"
1,"CCCCOc1cc2nnnc(Nc3cccc(C(F)(F)F)c3)c2cc1OC [Example 17, 6-methoxy-7-n-butoxy-4-(3-trifluoromethylanilino)-benzo[d][1,2,3]triazine]",No significant inhibition compared with the blank control
2,"CCCCOc1cc2nnnc(Nc3ccc(C(F)(F)F)cc3)c2cc1OC [Example 18, 6-methoxy-7-n-butoxy-4-(4-trifluoromethylanilino)-benzo[d][1,2,3]triazine]",No significant inhibition
3,"CCOc1cc2nnnc(Nc3ccc(C)cc3)c2cc1OC [Example 43, 6-methoxy-7-ethoxy-4-(4-methylanilino)-benzo[d][1,2,3]triazine]",No significant inhibition
4,"COc1cc2c(Nc3ccc(F)c(Cl)c3)nnnc2cc1OCCCN1CCOCC1 [Example 94, 6-methoxy-7-(3-morpholinopropoxy)-4-(3-chloro-4-fluoroanilino)-benzo[d][1,2,3]triazine]",No significant inhibition
5,"COc1cc2c(Nc3ccc(F)c(Cl)c3)nnnc2cc1OCCCN1CCCCC1.Cl [Example 95, 6-methoxy-7-(3-(piperidin-1-yl)-propoxy)-4-(3-chloro-4-fluoroanilino)-benzo[d][1,2,3]triazine hydrochloride]","Vascular growth was significantly inhibited, vascular ring was dead."

# Molecular target: VEGFR-2 (Homo sapiens, UniProt P35968)
# Assay: VEGFR-2 inhibition rate test (kinase assay kit, colorimetric ELISA)
# Conditions: concentration not given
# Sequence of VEGFR-2 (P35968 20-1356): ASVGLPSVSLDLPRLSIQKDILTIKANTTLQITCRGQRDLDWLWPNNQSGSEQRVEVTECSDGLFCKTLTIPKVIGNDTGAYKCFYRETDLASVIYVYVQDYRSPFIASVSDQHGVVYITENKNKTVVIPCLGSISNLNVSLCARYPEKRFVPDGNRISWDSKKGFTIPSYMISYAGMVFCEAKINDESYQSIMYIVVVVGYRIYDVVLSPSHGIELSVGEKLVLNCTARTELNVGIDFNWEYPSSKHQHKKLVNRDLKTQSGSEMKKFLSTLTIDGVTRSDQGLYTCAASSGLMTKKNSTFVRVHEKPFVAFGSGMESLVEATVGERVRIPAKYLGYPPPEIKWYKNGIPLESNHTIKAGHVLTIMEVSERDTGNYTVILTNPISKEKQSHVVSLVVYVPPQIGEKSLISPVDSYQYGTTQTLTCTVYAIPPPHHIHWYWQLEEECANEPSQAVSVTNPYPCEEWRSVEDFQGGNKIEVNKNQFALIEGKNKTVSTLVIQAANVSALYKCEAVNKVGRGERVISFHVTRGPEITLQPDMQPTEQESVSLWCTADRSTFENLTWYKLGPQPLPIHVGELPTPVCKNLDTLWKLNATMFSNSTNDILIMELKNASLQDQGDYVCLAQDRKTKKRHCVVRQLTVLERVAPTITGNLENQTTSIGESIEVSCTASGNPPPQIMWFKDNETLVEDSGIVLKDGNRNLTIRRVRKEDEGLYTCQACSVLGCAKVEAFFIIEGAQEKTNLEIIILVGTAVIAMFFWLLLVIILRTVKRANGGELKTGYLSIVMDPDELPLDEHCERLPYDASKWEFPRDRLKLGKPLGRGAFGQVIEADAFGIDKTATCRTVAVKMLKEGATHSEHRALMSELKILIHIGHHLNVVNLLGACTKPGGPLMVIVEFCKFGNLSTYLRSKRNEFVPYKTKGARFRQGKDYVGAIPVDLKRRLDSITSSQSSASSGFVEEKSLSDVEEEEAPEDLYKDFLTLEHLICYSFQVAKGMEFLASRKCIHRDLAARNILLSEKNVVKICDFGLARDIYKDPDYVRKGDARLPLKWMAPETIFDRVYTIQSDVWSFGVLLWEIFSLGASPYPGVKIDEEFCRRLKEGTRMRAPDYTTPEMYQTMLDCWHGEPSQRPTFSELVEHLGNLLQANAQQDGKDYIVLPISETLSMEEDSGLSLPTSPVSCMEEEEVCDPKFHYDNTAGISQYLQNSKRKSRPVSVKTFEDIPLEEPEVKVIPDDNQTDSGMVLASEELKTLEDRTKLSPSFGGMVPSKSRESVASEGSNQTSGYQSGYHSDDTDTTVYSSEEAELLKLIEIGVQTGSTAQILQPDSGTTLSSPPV
row,SMILES,Kinase inhibition rate (VEGFR-2)
1,"Fc1ccc(Nc2nnnc3ccccc23)cc1Cl [Example 1, 4-(3-chloro-4-fluoroanilino)-benzo[d][1,2,3]triazine]",3.47
2,"CCCCOc1cc2nnnc(Nc3ccccc3)c2cc1OC [Example 11, 6-methoxy-7-butoxy-4-anilino-benzo[d][1,2,3]triazine]",−4.27
3,"CCCCOc1cc2nnnc(Nc3ccc(Br)c(F)c3)c2cc1OC [Example 12, 6-methoxy-7-n-butoxy-4-(3-fluoro-4-bromoanilino)-benzo[d][1,2,3]triazine]",9.09
4,"CCCCOc1cc2nnnc(Nc3cc(F)cc(F)c3)c2cc1OC [Example 14, 6-methoxy-7-n-butoxy-4-(3,5-difluoroanilino)-benzo[d][1,2,3]triazine]",−0.80
5,"CCCCOc1cc2nnnc(Nc3ccc(Cl)cc3)c2cc1OC [Example 16, 6-methoxy-7-n-butoxy-4-(4-chloroanilino)-benzo[d][1,2,3]triazine]",−12.03
6,"CCCCOc1cc2nnnc(Nc3cccc(C(F)(F)F)c3)c2cc1OC [Example 17, 6-methoxy-7-n-butoxy-4-(3-trifluoromethylanilino)-benzo[d][1,2,3]triazine]",−5.34
7,"CCCCOc1cc2nnnc(Nc3ccc(C(F)(F)F)cc3)c2cc1OC [Example 18, 6-methoxy-7-n-butoxy-4-(4-trifluoromethylanilino)-benzo[d][1,2,3]triazine]",3.20
8,"CCCCOc1cc2nnnc(Nc3ccc(F)cc3)c2cc1OC [Example 26, 6-methoxy-7-n-butoxy-4-(4-fluoroanilino)-benzo[d][1,2,3]triazine]",9.89

# The next lines start with the values.
row,Kinase inhibition rate (VEGFR-2),SMILES
1,−22.99,"Fc1ccc(Nc2nnnc3ccccc23)cc1 [Example 2, 4-(4-fluoroanilino)-benzo[d][1,2,3]triazine]"
2,−5.34,"Fc1cc(F)cc(Nc2nnnc3ccccc23)c1 [Example 5, 4-(3,5-difluoroanilino)-benzo[d][1,2,3]triazine]"
3,−6.95,"Fc1cc(Nc2nnnc3ccccc23)ccc1Br [Example 8, 4-(3-fluoro-4-bromoanilino)-benzo[d][1,2,3]triazine]"
4,1.60,"Fc1ccc(Nc2nnnc3ccccc23)cc1C(F)(F)F [Example 9, 4-(3-trifluoromethyl-4-fluoroanilino)-benzo[d][1,2,3]triazine]"
5,−2.67,"Clc1cc(Cl)cc(Nc2nnnc3ccccc23)c1 [Example 10, 4-(3,5-dichloroanilino)-1,2,3-benzotriazine]"
6,45.98,"CCOc1cc2nnnc(Nc3ccccc3)c2cc1OC [Example 28, 6-methoxy-7-ethoxy-4-anilino-benzo[d][1,2,3]triazine]"
7,43.56,"CCOc1cc2nnnc(Nc3ccc(C)cc3)c2cc1OC [Example 43, 6-methoxy-7-ethoxy-4-(4-methylanilino)-benzo[d][1,2,3]triazine]"
8,−22.45,"CCCCCOc1cc2nnnc(Nc3ccccc3)c2cc1OC [Example 44, 6-methoxy-7-pentyloxy-4-anilino-benzo[d][1,2,3]triazine]"
9,−0.53,"CCCCCOc1cc2nnnc(Nc3cc(Cl)cc(Cl)c3)c2cc1OC [Example 46, 6-methoxy-7-pentyloxy-4-(3,5-dichloroanilino)-benzo[d][1,2,3]triazine]"
10,2.13,"CCCCCOc1cc2nnnc(Nc3cccc(OC(F)(F)F)c3)c2cc1OC [Example 52, 6-methoxy-7-pentyloxy-4-(3-trifluoromethoxyanilino)-benzo[d][1,2,3]triazine]"
11,3.20,"CCCCCOc1cc2nnnc(Nc3cccc(Cl)c3)c2cc1OC [Example 54, 6-methoxy-7-pentyloxy-4-(3-chloroanilino)-benzo[d][1,2,3]triazine]"
12,10.42,"CCCCCOc1cc2nnnc(Nc3ccccc3F)c2cc1OC [Example 57, 6-methoxy-7-pentyloxy-4-(2-fluoroanilino)-benzo[d][1,2,3]triazine]"
13,−5.61,"CCCCCOc1cc2nnnc(Nc3cccc(Br)c3)c2cc1OC [Example 58, 6-methoxy-7-pentyloxy-4-(3-bromoanilino)-benzo[d][1,2,3]triazine]"
14,7.75,"CCCCCOc1cc2nnnc(Nc3ccc(C)cc3)c2cc1OC [Example 60, 6-methoxy-7-pentyloxy-4-(4-methylanilino)-benzo[d][1,2,3]triazine]"
15,10.73,"COc1cc2c(Nc3cc(F)cc(F)c3)nnnc2cc1OCCCCl [Example 64, 6-methoxy-7-chloropropoxy-4-(3,5-difluoroanilino)-benzo[d][1,2,3]triazine]"
16,21.14,"COc1cc2c(Nc3cccc(Cl)c3)nnnc2cc1OCCCCl [Example 71, 6-methoxy-7-chloropropoxy-4-(3-chloroanilino)-benzo[d][1,2,3]triazine]"
